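Five concentrations, 48 hours, 96-well plates. GI50 = concentration required for 50% inhibition of growth. TGI: concentration producing complete growth inhibition.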 Bounds are passed on as bounds.

Common to all, as to test: NCI-60 cell line screen, 48 h
Test [1] has as its system MOLT-4 leukemia.
Test [2] relates to SR leukemia.
The subject of test [3] is UACC-257 melanoma.
For test [4], the system named is NCI-H522 lung.
The test system of test [5] is SK-MEL-28 melanoma.
For test [6], the system named is UACC-62 melanoma.
Test [7] concerns ACHN renal.
The subject of test [8] is OVCAR-5 ovarian.
For test [9], the system named is SK-OV-3 ovarian.
Test [10] deals with SF-539 CNS.

With `COc1ccc2c(c1)CCC1C2CC[C@]2(C)/C(=N/OC(=O)Cc3ccccc3)CCC12` (stereo not given in full), the GI50 was 17.2 µM in test [1]; 14.2 µM in test [2]; 18.7 µM in test [3]; 12.2 µM in test [4]; 24.1 µM in test [5]; 15.3 µM in test [6]. For the same molecule, the GI50 in [7] was 16.4 µM; in test [8] it was 46.6 µM; in [9], 28.7 µM; in test [10] it was 21.4 µM. Moreover, the TGI came to 35.8 µM in [1]; 33.3 µM in test [2]; 38.4 µM in [3]; 32.8 µM in test [4]; 78.1 µM in test [5]; 30.9 µM in [6]. For the same molecule, the TGI in [7] is 32 µM; in test [8], greater than 100 µM; in test [9], 72.1 µM; in [10] it was 42.8 µM.
On to `COc1ccc(/C=C/c2n[nH]c3ccc(N4CCOC4=O)cc23)cc1`, for which the GI50 is 1.46 µM in test [1]; 0.461 µM in test [2]; 3.6 µM in test [3]; 1.87 µM in test [4]; 3.39 µM in [5]; 2.6 µM in test [6]. The GI50 in [7] was 2.64 µM; in test [8] it was 3.16 µM; in [9] it was 2.82 µM; in [10] it was 0.99 µM. Also, the TGI is 9.54 µM in test [1]; 3.03 µM in test [2]; 9.3 µM in test [3]; 14.5 µM in test [4]; 12.4 µM in [5]; 6.83 µM in [6]. In addition, the TGI came out at 23.2 µM in [7], 59.8 µM in test [8], 9.57 µM in test [9] and 3.33 µM in [10].
On to `COc1ccc(NC(=O)c2sc3nc(C)c(C(O)c4ccccc4)cc3c2N)cc1` (stereo not given), for which the GI50 is 3.57 µM in [1]; 0.517 µM in test [2]; 3.86 µM in [3]; 2.21 µM in [4]; 6.93 µM in test [5]; 2.93 µM in test [6]. Also, the GI50 in [7] is 4.09 µM; in test [8], 4.74 µM; in [9], 4.59 µM; in test [10], 2.24 µM. Also, the TGI in test [1] is 34 µM; in [2], greater than 100 µM; in [3], 46.1 µM; in [4], 20.4 µM; in [5], greater than 100 µM; in [6], greater than 100 µM. In addition, the TGI was greater than 100 µM in [7], greater than 100 µM in [8], greater than 100 µM in [9] and 6.65 µM in test [10].
Turning to `O=[N+]([O-])c1nccn1COCCF`, the TGI in test [1], in test [2], in test [3], in [4], in [5] and in test [6] was greater than 100 µM each time. For the same molecule, the TGI in test [7], in test [8], in test [9] and in test [10] was greater than 100 µM throughout.
`NCCC(O)(P(=O)(O)O)P(=O)(O)O`: the GI50 in [1] is greater than 100 µM; in [2] it was greater than 100 µM; in [3], greater than 100 µM; in [4], greater than 100 µM; in test [5], greater than 100 µM; in [6], 29.1 µM. Besides, the GI50 in test [7] is 36 µM; in test [8], greater than 100 µM; in [9] it was greater than 100 µM; in test [10], greater than 100 µM. Also, the TGI in test [1], in test [2], in test [3], in test [4], in test [5] and in [6] was greater than 100 µM each time. In addition, the TGI in test [7], in [8], in test [9] and in test [10] was greater than 100 µM throughout.
In the case of `NS(=O)(=O)c1ccc(CCN=C=S)cc1`, the GI50 in test [1] is 3.05 µM; in test [2] it was 2.44 µM; in [3], 2.74 µM; in [4] it was 1.37 µM; in [5], 2.59 µM; in test [6], 1.81 µM. Also, the GI50 is 1.85 µM in [7], 1.85 µM in test [8], 18.2 µM in [9] and 1.87 µM in [10]. Further, the TGI in test [1] is greater than 100 µM; in [2], greater than 100 µM; in test [3], 9.24 µM; in test [4] it was 3.57 µM; in test [5], 7.28 µM; in test [6] it was 3.59 µM. For the same molecule, the TGI in test [7] came out at 3.65 µM; in test [8] it was 3.78 µM; in [9] it was 32.4 µM; in [10], 3.85 µM.
For `O=C(COc1ccccc1)NS(=O)(=O)c1ccccc1`, the TGI in [1], in test [2], in test [3], in [4], in test [5] and in test [6] was greater than 100 µM throughout. Moreover, the TGI in test [7], in test [8], in [9] and in test [10] was greater than 100 µM each time.
`COC1=CC(c2ccc[nH]2)=N/C1=C\c1ccc[nH]1`: the GI50 in test [1] is 0.0317 µM; in [2] it was 0.0222 µM; in test [3], 0.375 µM; in test [4], 0.284 µM; in test [5] it was 0.774 µM; in [6] it was 0.219 µM. For the same molecule, the GI50 was 0.226 µM in test [7], 0.683 µM in test [8], 5.37 µM in test [9] and 0.295 µM in test [10]. Moreover, the TGI in [1] is 33.7 µM; in test [2], 1.31 µM; in test [3], 9.24 µM; in test [4] it was 2.68 µM; in [5], 9.35 µM; in test [6], 0.516 µM. The TGI worked out at 11.3 µM in [7], 13.7 µM in test [8], 18.6 µM in test [9] and 1.87 µM in [10].
Turning to `COc1ccc(/C(C)=N/OC(=O)c2c(-c3ccccc3Cl)noc2C)cc1CN1CCOCC1`, the TGI in test [1] is greater than 100 µM; in test [2] it was greater than 100 µM; in [3], 46.6 µM; in [4] it was 48.3 µM; in [5], 54.4 µM; in test [6] it was 30 µM. For the same molecule, the TGI in test [7] was 32.8 µM; in test [8] it was 45.9 µM; in test [9], greater than 100 µM; in [10], 56.7 µM.
For the molecule `NCc1nnn(Cc2ccccc2)c1N`, the TGI in test [1], in test [2], in test [3], in [4], in test [5] and in [6] was greater than 100 µM throughout. The TGI in [7], in [8], in test [9] and in test [10] was greater than 100 µM in each case.
With `COc1cc(/C=C2\COc3ccc(O)c(O)c3C2=O)cc(OC)c1`, the GI50 is 1.54 µM in [1]; 0.852 µM in test [2]; 1.79 µM in test [3]; 0.171 µM in test [4]; 2.97 µM in [5]; 1.42 µM in [6]. Further, the GI50 in test [7] is 1.54 µM; in test [8], 3.03 µM; in test [9] it was 4.57 µM; in test [10], 1.84 µM. Further, the TGI in test [1] was determined as 53.1 µM; in test [2] it was 12.5 µM; in test [3], 4.97 µM; in [4], 0.403 µM; in test [5] it was 10.4 µM; in test [6] it was 3.57 µM. For the same molecule, the TGI is 3.74 µM in [7], 11.5 µM in [8], 17.3 µM in test [9] and 3.95 µM in test [10].
For the molecule `COC1=CC(c2ccc[nH]2)=N/C1=C\c1[nH]c(C)c(C(=O)CCCCC(=O)Nc2ccccc2)c1C`, the GI50 in [1] is 0.522 µM; in [2] it was 0.636 µM; in [3], 12.2 µM; in test [4], 1.32 µM; in test [5] it was 1.63 µM; in test [6], 8.71 µM. In addition, the GI50 in [7] is 10.3 µM; in [8], 3.14 µM; in test [9], 18.3 µM; in test [10], 3.78 µM. In addition, the TGI in [1] worked out at 2.01 µM; in test [2], 3.69 µM; in [3], 34 µM; in test [4] it was 3.46 µM; in test [5], 3.2 µM; in test [6], 24.5 µM. For the same molecule, the TGI amounted to 24 µM in test [7], 16.5 µM in test [8], 40.1 µM in test [9] and 9.78 µM in test [10].
Take `COC(=O)C1=C(C(=O)OC)C23C=C(C)C1C2=C(C)C1(CC1)[C@@](C)(O)C3=O` (stereo not given in full): the GI50 in test [1] is 6.62 µM; in test [2], 3.64 µM; in test [3], 0.864 µM; in [4], 0.495 µM; in test [5] it was 0.714 µM; in [6], 0.259 µM. The GI50 in [7] is 0.416 µM; in test [8] it was 0.365 µM; in [9], 0.25 µM; in test [10] it was 0.337 µM. Also, the TGI is greater than 100 µM in test [1]; greater than 100 µM in test [2]; 3.82 µM in test [3]; 5.75 µM in test [4]; 3.97 µM in test [5]; 0.792 µM in test [6]. In addition, the TGI in [7] is greater than 100 µM; in test [8], 8.89 µM; in test [9], 0.7 µM; in [10], 1.56 µM.
For `CCOC(=O)/C(=C/c1ccc(C#N)cc1)N(CC)CC`, the TGI in [1], in test [2], in test [3], in test [4], in [5] and in test [6] was greater than 100 µM in each case. In addition, the TGI in test [7], in [8], in test [9] and in test [10] was greater than 100 µM each time.
As to `CCCN(CCC)c1ccc(/C=N/NC(=O)c2cccnc2)c(Cl)c1`, the GI50 in [1] is 12.9 µM; in test [2], 3.41 µM; in test [3], 0.816 µM; in test [4], 6.64 µM; in test [5] it was 11.9 µM; in [6], 0.875 µM. The GI50 is 23.3 µM in test [7], 1.22 µM in test [8], 13.9 µM in test [9] and 11.6 µM in [10]. Moreover, the TGI in [1] stood at 46.2 µM; in test [2] it was 98.6 µM; in [3], 2.96 µM; in [4], 23.3 µM; in [5] it was 31.9 µM; in test [6], 4.6 µM. Besides, the TGI in test [7] is greater than 88.1 µM; in [8], 4.73 µM; in test [9], 45.5 µM; in test [10], 26.5 µM.
Consider `O=C(/C=C\c1ccc(Cl)cc1Cl)c1cccs1`, for which the TGI is greater than 100 µM in [1]; greater than 100 µM in test [2]; 36.4 µM in test [3]; 50.3 µM in test [4]; 42.3 µM in test [5]; 28.3 µM in test [6]. In addition, the TGI in test [7] worked out at 27.9 µM; in test [8], 41.3 µM; in test [9], 59.3 µM; in test [10] it was 36.5 µM.
On to `CCCc1nc2c(C)cc(-c3nc4ccccc4n3C)cc2n1Cc1ccc(-c2ccccc2C(=O)O)cc1`, for which the GI50 is 32.4 µM in test [1]; 28.6 µM in test [2]; 68.4 µM in test [3]; 22 µM in test [4]; 25.7 µM in test [5]; 22.4 µM in test [6]. Also, the GI50 is 25.6 µM in test [7], greater than 100 µM in test [8], greater than 100 µM in test [9] and 46.5 µM in [10]. The TGI in [1] is greater than 100 µM; in test [2], greater than 100 µM; in [3], greater than 100 µM; in [4], 46.5 µM; in [5], greater than 100 µM; in test [6], greater than 100 µM. The TGI in [7], in test [8], in test [9] and in test [10] was greater than 100 µM in each case.

The values above are taken from PubChem BioAssay (NCI).
